Measurements taken from patent US8258118B2, “4-pyridinone compounds and their use for cancer” (Bristol-Myers Squibb Company, priority 2008, dated 2012).
pIC50: −log10 of the molar value.

Legend:
GST-Met kinase = target: T1, GST-Met kinase (Homo sapiens, UniProt P08581); test: Met kinase assay; format: biochemical
T1 construct: made in house
Protocol: Incubation mixtures employed for the Met kinase assay contain a baculovirus expressed GST-Met kinase, the synthetic substrate polyGlu:Tyr, (4:1), ATP, ATP-γ-^33P and buffer containing Mn^+2, DTT, BSA, and Tris. Reactions were incubated for 60 minutes at 30° C. and stopped by the addition of cold trichloroacetic acid (TCA) to a final concentration 8%. TCA precipitates were collected onto GF/C UniFilter plates (Packard Instrument Co., Meriden, Conn.) using a FILTERMATE® universal harvester (Packard Instrument Co., Meriden, Conn.) and the filters are quantitated using a TopCount 96/384-well liquid scintillation counter (Packard Instrument Co., Meriden, Conn.). Dose response curves were generated to determine the concentration required to inhibit 50% of kinase activity (IC50). Compounds were dissolved at 10 mM in dimethyl sulfoxide (DMSO) and evaluated at ten concentrations, each in duplicate. The final concentration of DMSO in the assay is 1.7%. IC50 values were derived by non-linear regression.

GTL-16 cells = test: GTL-16 gastric carcinoma proliferation assay (MTS); format: cell-based; conditions: Homo sapiens, 72 h, 0.5% fetal calf serum
Protocol: Inhibition of GTL-16 cell growth was assessed by a MTS assay using a CELLTITER 96® Aqueous Non-Radioactive Proliferation Assay kit from Promega. The kit is composed of solutions of a novel tetrazolium compound (3-(4,5-dimethylthiazol-2-yl)-5-(3-carboxymethoxyphenyl)-2-(4-sulfophenyl)-2H-tetrazolium, inner salt; MTS) and an electron coupling reagent (phenazine methosulfate, PMS). In this colormetric assay, the conversion of MTS into aqueous, soluble formazan is accomplished by dehydrogenase enzymes found in metabolically active cells. The quantity of formazan product as measured by its absorbance at 490 nm is directly proportional to the number of living cells in culture.
GTL-16 cells were inoculated into 96 well microtiter plates in 0.5% fetal calf serum and incubated at 37° C., 5% CO2, 95% air and 100% relative humidity for 24 h prior to addition of a compound. At the time of drug treatment, one plate of the cell line was processed using the above kit to represent a measurement of the cell population at the time of drug addition. Following drug treatment, the plates were incubated for an additional 72 h before processing, and measuring cell populations. Each compound was tested at 8 different concentrations in triplicate, as was the untreated control sample. Growth inhibition of 50% (IC50) is calculated by analysis of the data in Excel that uses a 4 parameter logistic equation with data fitted using the Levenburg Marquardt algorithm

VEGFR-2 = VEGFR-2 (Homo sapiens, UniProt P35968); test: VEGFR-2 kinase assay; format: biochemical
Protocol: Incubation mixtures employed for the VEGFR-2 assay contain the synthetic substrate poly glu/tyr, (4:1), ATP, ATP-γ-^33P and buffer containing Mn^+2, DTT, BSA, and Tris buffer. The reaction is initiated by addition of enzyme and after 60 minutes at room temperature is terminated by the addition of 30% TCA to a final concentration of 15% TCA. Inhibitors are brought to 10 mM in 100% DMSO. Assays are prepared in a 96 well format in quadruplicate. Compounds are diluted 1:500 in 100% DMSO and then 1:10 in water for a final DMSO concentration of 10%. Aliquots (10 μL) are added to rows B-H in a 96 well format of 10% DMSO. The compound (20 μl) is added to row A at a concentration 5 fold higher than running conditions. Aliquots (10 μL) are transferred to each row followed by six serial dilutions with mixing, and at row F 10 μL are discarded. Row G is a control with no compound and row H is no compound and no enzyme control. Enzyme and substrate are delivered using a Tomtec Quadra station.
Plates are covered with sticky plate tops, incubated at 27° C. for 60 minutes, and then acid precipitated with TCA for 20 minutes on ice. […] Activity is determined by quantitating the incorporated radioactivity using a Packard TopCount Microplate Scintillation Counter following the addition of Microscint-20 cocktail into each dried well of the UniFilter microplates.

[1] = tested on: GTL-16 gastric carcinoma xenografts; test: In vivo efficacy, GTL-16 human gastric tumor xenograft model; conditions: for overt toxicity: administered once daily for 14 days, any of the dose levels
Protocol: N-(4-(2-Amino-3-chloropyridin-4-yloxy)-3-fluorophenyl)-5-(4-fluorophenyl)-4-oxo-1,4-dihydropyridine-3-carboxamide (Example 1) and (3-(4-(2-amino-3-chloropyridin-4-yloxy)-3-fluorophenylcarbamoyl)-5-(4-fluorophenyl)-4-oxopyridin-1(4H)-yl)methyl dihydrogen phosphate (Example 2) were evaluated for in vivo efficacy against the GTL-16 human gastric tumor xenograft model. Example 2 is a prodrug of Example 1.

[2] = tested on: U87 glioblastoma xenografts; test: In vivo efficacy, U87 glioblastoma xenograft model; conditions: 25 mg/kg, dosed orally once daily for 14 days
Protocol: Example 1 was also tested in the U87 glioblastoma model, a Met driven tumor based on an HGF autocrine mechanism of Met activation.

T1 sequence (P08581 25-1390): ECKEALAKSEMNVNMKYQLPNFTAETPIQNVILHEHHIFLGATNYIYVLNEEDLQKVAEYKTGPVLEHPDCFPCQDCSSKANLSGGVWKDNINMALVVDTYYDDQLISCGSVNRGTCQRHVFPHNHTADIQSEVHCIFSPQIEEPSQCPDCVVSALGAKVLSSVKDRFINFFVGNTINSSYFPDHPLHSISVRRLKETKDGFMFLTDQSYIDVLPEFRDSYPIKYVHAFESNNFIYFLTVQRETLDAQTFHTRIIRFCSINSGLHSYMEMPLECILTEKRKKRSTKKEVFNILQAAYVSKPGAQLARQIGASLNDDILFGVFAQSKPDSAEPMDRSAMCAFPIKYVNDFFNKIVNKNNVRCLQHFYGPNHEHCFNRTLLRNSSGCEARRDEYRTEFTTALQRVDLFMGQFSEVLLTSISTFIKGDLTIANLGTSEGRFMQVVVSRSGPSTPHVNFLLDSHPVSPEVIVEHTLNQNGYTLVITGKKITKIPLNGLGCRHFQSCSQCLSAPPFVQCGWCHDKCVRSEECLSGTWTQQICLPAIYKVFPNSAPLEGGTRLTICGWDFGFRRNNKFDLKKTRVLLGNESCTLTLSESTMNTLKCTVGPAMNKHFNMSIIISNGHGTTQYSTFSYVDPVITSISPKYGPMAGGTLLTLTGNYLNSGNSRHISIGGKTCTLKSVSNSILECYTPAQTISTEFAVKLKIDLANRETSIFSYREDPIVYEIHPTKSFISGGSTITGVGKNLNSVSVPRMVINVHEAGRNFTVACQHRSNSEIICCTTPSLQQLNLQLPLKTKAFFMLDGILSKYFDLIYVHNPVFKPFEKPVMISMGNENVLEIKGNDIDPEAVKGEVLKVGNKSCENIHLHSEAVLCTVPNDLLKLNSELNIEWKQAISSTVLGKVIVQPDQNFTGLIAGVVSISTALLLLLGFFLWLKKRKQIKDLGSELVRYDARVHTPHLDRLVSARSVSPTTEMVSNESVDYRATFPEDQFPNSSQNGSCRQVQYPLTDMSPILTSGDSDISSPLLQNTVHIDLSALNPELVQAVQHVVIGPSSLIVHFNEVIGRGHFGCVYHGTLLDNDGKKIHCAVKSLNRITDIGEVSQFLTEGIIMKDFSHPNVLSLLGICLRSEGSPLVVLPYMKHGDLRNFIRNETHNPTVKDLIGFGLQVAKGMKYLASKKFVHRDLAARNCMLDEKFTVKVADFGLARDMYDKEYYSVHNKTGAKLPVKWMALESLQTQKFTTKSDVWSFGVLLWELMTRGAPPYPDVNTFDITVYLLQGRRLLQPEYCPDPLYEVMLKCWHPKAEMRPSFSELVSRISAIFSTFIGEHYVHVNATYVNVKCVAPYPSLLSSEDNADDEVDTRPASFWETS
VEGFR-2, sequence (P35968 20-1356): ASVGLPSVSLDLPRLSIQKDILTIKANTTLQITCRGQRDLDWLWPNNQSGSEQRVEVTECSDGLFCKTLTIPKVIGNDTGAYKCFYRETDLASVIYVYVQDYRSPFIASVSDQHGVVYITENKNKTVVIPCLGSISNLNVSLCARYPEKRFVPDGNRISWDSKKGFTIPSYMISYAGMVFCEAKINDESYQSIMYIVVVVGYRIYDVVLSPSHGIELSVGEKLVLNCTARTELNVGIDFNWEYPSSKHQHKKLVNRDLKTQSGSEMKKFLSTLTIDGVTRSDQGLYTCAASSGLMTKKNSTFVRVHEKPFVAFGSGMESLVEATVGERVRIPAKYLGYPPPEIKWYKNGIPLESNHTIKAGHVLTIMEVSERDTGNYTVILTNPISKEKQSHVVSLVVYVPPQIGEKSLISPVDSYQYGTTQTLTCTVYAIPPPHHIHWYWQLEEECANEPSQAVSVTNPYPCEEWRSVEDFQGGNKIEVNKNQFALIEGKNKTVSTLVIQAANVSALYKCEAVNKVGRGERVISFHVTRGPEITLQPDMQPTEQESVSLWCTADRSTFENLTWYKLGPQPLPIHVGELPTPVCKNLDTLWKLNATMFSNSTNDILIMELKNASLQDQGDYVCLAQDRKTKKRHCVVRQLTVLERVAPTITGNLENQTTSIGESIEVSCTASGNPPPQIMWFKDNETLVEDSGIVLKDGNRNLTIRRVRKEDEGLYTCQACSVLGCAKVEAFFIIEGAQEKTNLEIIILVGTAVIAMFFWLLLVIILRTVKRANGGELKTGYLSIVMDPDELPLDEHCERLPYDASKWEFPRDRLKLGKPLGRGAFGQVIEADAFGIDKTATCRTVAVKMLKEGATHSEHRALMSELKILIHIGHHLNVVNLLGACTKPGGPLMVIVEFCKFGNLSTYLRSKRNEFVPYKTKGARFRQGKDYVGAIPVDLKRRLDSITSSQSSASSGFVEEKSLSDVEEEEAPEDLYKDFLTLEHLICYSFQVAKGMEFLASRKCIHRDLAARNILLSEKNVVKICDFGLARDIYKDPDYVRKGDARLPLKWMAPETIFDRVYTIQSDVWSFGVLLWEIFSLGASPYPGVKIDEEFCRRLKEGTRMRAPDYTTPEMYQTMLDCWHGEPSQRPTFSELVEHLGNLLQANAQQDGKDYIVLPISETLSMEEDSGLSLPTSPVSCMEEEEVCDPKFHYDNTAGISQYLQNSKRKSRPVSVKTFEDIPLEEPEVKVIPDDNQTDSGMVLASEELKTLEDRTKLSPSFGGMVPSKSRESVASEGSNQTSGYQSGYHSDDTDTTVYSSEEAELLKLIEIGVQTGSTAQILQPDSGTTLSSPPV

Structure (SMILES)	pIC50 (GST-Met kinase)	pIC50 (GTL-16 cells)	pIC50 (VEGFR-2)	antitumor activity (tumor stasis) ([1]; 25 mg/kg of Example 1, once daily for 14 days)	overt toxicity [1]	antitumor activity (tumor stasis) [2]	antitumor activity (tumor stasis) ([1]; 31.2 mg/kg of Example 2 (equimolar to 25 mg/kg Example 1), once daily for 14 days)
Nc1cc(Oc2ccc(NC(=O)c3c[nH]cc(Cc4ccccc4)c3=O)cc2F)ccn1 [Compound A, N-(4-(2-Aminopyridin-4-yloxy)-3-fluorophenyl)-5-benzyl-4-oxo-1,4-dihydropyridine-3-carboxamide]	6.80	5.27	–	–	–	–	–
Nc1cc(Oc2ccc(NC(=O)c3cccn(-c4ccc(F)cc4)c3=O)cc2F)ccn1 [Compound B, N-(4-(2-Aminopyridin-4-yloxy)-3-fluorophenyl)-1-(4-fluorophenyl)-2-oxo-1,2-dihydropyridine-3-carboxamide]	8.32	6.77	7.40	–	–	–	–
Nc1nccc(Oc2ccc(NC(=O)c3c[nH]cc(-c4ccc(F)cc4)c3=O)cc2F)c1Cl [Example 1, N-(4-(2-Amino-3-chloropyridin-4-yloxy)-3-fluorophenyl)-5-(4-fluorophenyl)-4-oxo-1,4-dihydropyridine-3-carboxamide]	8.77	7.41	7.82	complete tumor stasis	No overt toxicity	complete tumor stasis	–
Nc1nccc(Oc2ccc(NC(=O)c3cn(COP(=O)(O)O)cc(-c4ccc(F)cc4)c3=O)cc2F)c1Cl [Example 2, (3-(4-(2-Amino-3-chloropyridin-4-yloxy)-3-fluorophenylcarbamoyl)-5-(4-fluorophenyl)-4-oxopyridin-1(4H)-yl)methyl dihydrogen phosphate]	–	–	–	–	No overt toxicity	–	complete tumor stasis
